According to ChEMBL document CHEMBL1140230, “Discovery of begacestat, a Notch-1-sparing gamma-secretase inhibitor for the treatment of Alzheimer's disease” (J Med Chem, 2008):
≈ marks a conversion by molar mass, not a printed value. Calls of active or inactive are those of the source. The rule behind the calls is not given here.

How the values were obtained:
[1] = Inhibition of gamma-secretase expressed in CHO cells expressing human recombinant APP assessed as amyloid beta40 […]; format: cell-based
[2] = Selectivity ratio of EC50 for gamma-secretase to EC50 for mouse notch processing
Mus musculus [3] = species: Mus musculus; assay: Reversal of cognitive deficits in contextual fear conditioning in Tg2576 mouse model; format: functional, organism-based
Mus musculus [4] = assay: Reduction of amyloid beta40 level in Tg2576 mouse brain at 100 mg/kg, po after 4 hrs; format: functional; parameters: scale not given: the % may be the effect or the level left
Mus musculus [5] = assay: Reduction of amyloid beta42 level in Tg2576 mouse brain at 100 mg/kg, po after 4 hrs; format: functional; parameters: scale not given: the % may be the effect or the level left
[6] = Metabolic stability in dog microsomes assessed as half life; format: ADME, Canis lupus familiaris, Microsome
[7] = Metabolic stability in rat microsomes assessed as half life; format: ADME, Microsome
Mus musculus [8] = assay: Reduction of amyloid beta40 level in Tg2576 mouse brain at 5 mg/kg, po after 4 hrs; format: functional; parameters: scale not given: the % may be the effect or the level left
[9] = Metabolic stability in monkey microsomes assessed as half life; format: ADME, Macaca mulatta, Microsome; settings: rhesus monkey
[10] = Dissociation constant, pKa of the compound; format: physicochemical
[11] = Metabolic stability in Tg2576 mouse microsomes assessed as half life; format: ADME, Microsome
Mus musculus [12] = assay: Reduction of amyloid beta42 level in Tg2576 mouse brain at 5 mg/kg, po after 4 hrs; format: functional; parameters: scale not given: the % may be the effect or the level left
in vitro = settings: human, microsomes
Description: Metabolic stability in human microsomes assessed as half life

Mus musculus [13] = assay: Reduction of amyloid beta42 level in Tg2576 mouse brain at 10 mg/kg, po after 4 hrs; format: functional; parameters: scale not given: the % may be the effect or the level left
Mus musculus [14] = assay: Reversal of cognitive deficits in contextual fear conditioning in Tg2576 mouse model at 10 mg/kg, po; format: functional, organism-based; parameters: dose 10 mg/kg
[15] = Ratio of drug level in brain to plasma in Tg2576 mouse model; format: ADME
[16] = Membrane permeability by PAMPA assay; format: ADME; settings: read-out: permeability
[17] = Solubility in Phosal PG50/Tween-80/water; format: physicochemical
[18] = Apparent permeability from apical to basolateral side in human Caco-2 cells; format: ADME, cell-based
[19] = Apparent permeability from basolateral to apical side in human Caco-2 cells; format: ADME, cell-based

Structure (SMILES)	IC50 [1] [nM]	Ratio EC50 [2]	half-life [7] [min]	pKa [10]	half-life [11] [min]	half-life (in vitro) [min]	other results
C[C@H](NC(=O)Cc1cc(F)cc(F)c1)C(=O)N[C@H](C(=O)OC(C)(C)C)c1ccccc1	–	–	–	–	–	–	Activity (Mus musculus [3]): Active; Activity (Mus musculus [4]): 25%; Activity (Mus musculus [5]): 25%
O=S(=O)(N[C@H](CO)C(C(F)(F)F)C(F)(F)F)c1ccc(Cl)s1 [BEGACESTAT]	15	14	3	8.3	48	> 90	half-life [6]: 31 min; Activity (Mus musculus [8]): 37%; half-life [9]: 26 min; Activity (Mus musculus [12]): 25%
CC[C@H](C)[C@@H](CO)NS(=O)(=O)c1ccc(Cl)s1	297	–	–	–	–	–	–
O=S(=O)(N[C@H](CO)C(CC(F)(F)F)CC(F)(F)F)c1ccc(Cl)s1	16	15	8	8.9	24	8	half-life [6]: 13 min; Activity (Mus musculus [8]): 27%; half-life [9]: 5 min; Activity (Mus musculus [12]): 22%

Further molecules by falling IC50 [1], results first:

IC50 [1] [nM]	Ratio EC50 [2]	half-life [7] [min]	pKa [10]	half-life [11] [min]	half-life (in vitro) [min]	Structure (SMILES)	other results
10700	3.7	–	–	–	–	O=S(=O)(N[C@@H](CO)C(C(F)(F)F)C(F)(F)F)c1ccc(Cl)s1	–
5450	–	–	–	–	–	CC[C@H](C)[C@@H](CO)NS(=O)(=O)c1ccc(Cl)cc1	Activity (Mus musculus [13]): 25%; Activity (Mus musculus [14]): Active
2210	–	–	–	–	–	CC[C@H](C)[C@@H](CO)NS(=O)(=O)c1ccc(Br)cc1	Activity (Mus musculus [13]): 25%; Activity (Mus musculus [14]): Active
294	14	–	–	–	–	CCC(CC)[C@@H](CO)NS(=O)(=O)c1ccc(Cl)cc1	–
25	10	1	9.6	2	8	CCC(CC)[C@@H](CO)NS(=O)(=O)c1ccc(Cl)s1 [GSI-136]	Kp [15]: 2; Papp [16]: 12.5 ×10⁻⁶ cm/s; solubility [17]: 6700 µg/mL (≈ 21.5 mM); Papp A→B [18]: 50 ×10⁻⁶ cm/s; Activity (Mus musculus [4]): 25%; Papp B→A [19]: 43 ×10⁻⁶ cm/s; Activity (Mus musculus [5]): 25%
